Numbered stars: 1 amine (or outer) side, 2 acyl side, 3 side chain; on linkers, the order of the positions; unused ones are H or OH. Bridge positions count the residues as written; N and C are the ends. Side chains are listed from the residue outwards. Peptide text beside a SMILES is read from it. * marks the point of attachment. C20 diacid = O=C(O)CCCCCCCCCCCCCCCCCCC(=O)*; γGlu = O=C(O)[C@H](CCC(=O)[*:2])N[*:1]
What was measured:
Male Sprague-Dawley rats = experiment: ASSAY (XI) single subcutaneous administration, food intake monitored for 48 hours in rats; assay type: in vivo, rat; conditions: for Food intake red (%) 0-24 h / Food intake red (%) 24-48 h: single s.c., compared to vehicle; for food intake monitored over 48 hours: single subcutaneous administration, versus vehicle
Method in brief: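 Male Sprague-Dawley rats from Taconic Europe, weighing about 250 g on the test day, were singly housed in an online food intake monitoring system (Ellegaard MBRose, Denmark). Before the study they were acclimatized to a reversed light cycle, with lights on from 10 PM to 10 AM. Each rat then received one subcutaneous dose of the analogue, and data are reported as mean±SEM.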

Male Wistar rats = experiment: ASSAY (XII) effect from single subcutaneous administration on plasma calcium in rats; assay type: in vivo, rat; conditions: for Plasma calcium red (%) 0-12 h (maximal): single s.c., compared to vehicle; for suppression of plasma calcium level relative to vehicle: monitored over 24 hours
Method in brief: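 Male Wistar rats (~250 g), groups of five, received a single subcutaneous dose at time 0. Blood drawn at −15 min, 1, 2, 4, 7, 12 and 24 h; total calcium measured in heparin plasma, reported as mean±SEM.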

[1] = ASSAY (IX) pK, determination of T½ in mini-pig; assay type: in vivo; conditions: male, Göttingen, minipig, plasma, iv, 2 nmol/kg
[2] = ASSAY (X) pK, determination of T½ in rat; assay type: in vivo; conditions: male, Sprague Dawley, plasma, iv, 20 nmol/kg
[3] = target: T1, human calcitonin (a) receptor in BHK570 cells (Homo sapiens, UniProt P30988); experiment: ASSAY (II)a functional assay, human calcitonin receptor (CRE luciferase); assay type: cell-based; conditions: read-out: hCTR funct. EC50
T1 construct: expressed in transfected cells
T1 sequence (P30988 25-474): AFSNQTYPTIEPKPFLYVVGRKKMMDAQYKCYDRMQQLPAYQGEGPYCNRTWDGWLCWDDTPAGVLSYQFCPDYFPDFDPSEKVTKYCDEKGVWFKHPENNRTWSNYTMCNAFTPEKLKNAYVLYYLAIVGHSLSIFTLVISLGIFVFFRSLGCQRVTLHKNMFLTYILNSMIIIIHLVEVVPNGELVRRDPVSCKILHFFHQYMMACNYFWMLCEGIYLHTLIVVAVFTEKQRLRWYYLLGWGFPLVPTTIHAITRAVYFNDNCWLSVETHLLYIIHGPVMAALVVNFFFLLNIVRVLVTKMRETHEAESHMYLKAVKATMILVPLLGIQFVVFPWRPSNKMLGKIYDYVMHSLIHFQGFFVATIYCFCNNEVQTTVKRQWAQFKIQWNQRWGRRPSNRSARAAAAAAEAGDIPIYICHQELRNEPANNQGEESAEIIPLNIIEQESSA
Method in brief: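 BHK cells stably carrying a CRE-luciferase reporter plus calcitonin receptor, or calcitonin receptor with RAMP-3 for the amylin 3(a) receptor, were seeded and kept overnight at 37° C. Compounds were added in assay medium with 10% FBS and 10 mM Hepes, pH 7.4, for 3 hours at 37° C, then luminescence was counted.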

[4] = single subcutaneous administration, increasing doses (all doses tested)

Row | Plasma calcium red (%) 0-12 h (maximal) (Male Wistar rats; 3 nmol/kg) [%] | Plasma calcium red (%) 0-12 h (maximal) (Male Wistar rats; 30 nmol/kg) [%] | half-life [1] [h] | half-life [2] [h] | EC50 [3] [nM] | SMILES | Food intake red (%) 0-24 h (Male Sprague-Dawley rats; 3 nmol/kg) [%] | Food intake red (%) 24-48 h (Male Sprague-Dawley rats; 3 nmol/kg) [%] | Food intake red (%) 0-24 h (Male Sprague-Dawley rats; 30 nmol/kg) [%] | Food intake red (%) 24-48 h (Male Sprague-Dawley rats; 30 nmol/kg) [%] | food intake monitored over 48 hours (Male Sprague-Dawley rats; 30 nmol/kg) | suppression of plasma calcium level relative to vehicle (Male Wistar rats; single subcutaneous 3 nmol/kg) | suppression of plasma calcium level relative to vehicle (Male Wistar rats; single subcutaneous 30 nmol/kg) | suppression of plasma calcium level relative to vehicle (Male Wistar rats; single subcutaneous 100 nmol/kg) | suppression of plasma calcium level relative to vehicle (Male Wistar rats; single subcutaneous 300 nmol/kg) | suppression of plasma calcium level relative to vehicle (Male Wistar rats; [4])
1 | 7 | 27 | 95 | 17 | – | CC[C@H](C)[C@H](NC(=O)[C@H](C)NC(=O)CNC(=O)[C@H](Cc1ccccc1)NC(=O)[C@H](CC(N)=O)NC(=O)[C@@H]1CCCN1C(=O)[C@H](CO)NC(=O)[C@H](CO)NC(=O)[C@H](Cc1c[nH]cn1)NC(=O)[C@H](CCCNC(=N)N)NC(=O)[C@H](CC(C)C)NC(=O)[C@H](Cc1ccccc1)NC(=O)[C@H](CCC(=O)O)NC(=O)[C@H](C)NC(=O)[C@H](CC(C)C)NC(=O)[C@H](CCCNC(=N)N)NC(=O)[C@H](CCC(N)=O)NC(=O)[C@@H](NC(=O)[C@H](C)NC(=O)[C@@H]1CSSC[C@H](NC(=O)[C@@H](N)CCCCNC(=O)CC[C@H](NC(=O)CCCCCCCCCCCCCCCCCCC(=O)O)C(=O)O)C(=O)N[C@@H](CC(N)=O)C(=O)N[C@@H]([C@@H](C)O)C(=O)N[C@@H](C)C(=O)N[C@@H]([C@@H](C)O)C(=O)N1)[C@@H](C)O)C(=O)N1CCC[C@H]1C(=O)N[C@@H](CO)C(=O)N[C@@H](CO)C(=O)N[C@H](C(=O)N[C@@H](CC(N)=O)C(=O)N[C@H](C(=O)NCC(=O)N1CCC[C@H]1C(=O)N[C@@H](CCC(=O)O)C(=O)N[C@H](C(=O)N[C@@H](Cc1ccc(O)cc1)C(N)=O)[C@@H](C)O)C(C)C)[C@@H](C)O [Example 109] (H-K([γGlu-C20 diacid])CNTATCATQRLAEFLRHSSPNFGAIPSSTNVGPETY-NH2; disulfide 2-7 (inferred); N-terminus assumed) | 57 | 50 | 89 | 91 | reduces food intake | does not trigger a notable suppression of the calcium level | induces a minor suppression of the calcium level | induces a more pronounced suppression of the calcium level | induces a more pronounced suppression of the calcium level | –
2 | – | 0 | 104 | 20 | 19.2 | CC[C@H](C)[C@H](NC(=O)[C@H](C)NC(=O)CNC(=O)[C@H](Cc1ccccc1)NC(=O)[C@H](CC(N)=O)NC(=O)[C@@H]1CCCN1C(=O)[C@H](CO)NC(=O)[C@H](CO)NC(=O)[C@H](Cc1c[nH]cn1)NC(=O)[C@H](CCCNC(=N)N)NC(=O)[C@H](CC(C)C)NC(=O)[C@H](Cc1ccccc1)NC(=O)[C@H](CC(N)=O)NC(=O)[C@H](C)NC(=O)[C@H](CC(C)C)NC(=O)[C@H](CCCNC(=N)N)NC(=O)[C@H](CCC(N)=O)NC(=O)[C@@H](NC(=O)[C@H](C)NC(=O)[C@@H]1CSSC[C@H](NC(=O)[C@@H](N)CCCCNC(=O)CC[C@H](NC(=O)CC[C@H](NC(=O)CCCCCCCCCCCCCCCCCCC(=O)O)C(=O)O)C(=O)O)C(=O)N[C@@H](CC(N)=O)C(=O)N[C@@H]([C@@H](C)O)C(=O)N[C@@H](C)C(=O)N[C@@H]([C@@H](C)O)C(=O)N1)[C@@H](C)O)C(=O)N1CCC[C@H]1C(=O)N[C@@H](CO)C(=O)N[C@@H](CO)C(=O)N[C@H](C(=O)N[C@@H](CC(N)=O)C(=O)N[C@H](C(=O)NCC(=O)N[C@@H](Cc1c[nH]cn1)C(=O)N[C@@H](CC(N)=O)C(=O)N[C@H](C(=O)N[C@@H](Cc1ccc(O)cc1)C(N)=O)[C@@H](C)O)C(C)C)[C@@H](C)O [Example 86] (H-K([γGlu-γGlu-C20 diacid])CNTATCATQRLANFLRHSSPNFGAIPSSTNVGHNTY-NH2; disulfide 2-7) | – | – | 48 | 26 | reduces food intake | – | – | – | – | None of the doses trigger a notable suppression of the calcium level
3 | – | 12 | 99.5 | 21 | – | CC[C@H](C)[C@H](NC(=O)[C@H](C)NC(=O)CNC(=O)[C@H](Cc1ccccc1)NC(=O)[C@H](CC(N)=O)NC(=O)[C@@H]1CCCN1C(=O)[C@H](CO)NC(=O)[C@H](CO)NC(=O)[C@H](Cc1c[nH]cn1)NC(=O)[C@H](CCCNC(=N)N)NC(=O)[C@H](CC(C)C)NC(=O)[C@H](Cc1ccccc1)NC(=O)[C@H](CC(=O)O)NC(=O)[C@H](C)NC(=O)[C@H](CC(C)C)NC(=O)[C@H](CCCNC(=N)N)NC(=O)[C@H](CCC(N)=O)NC(=O)[C@@H](NC(=O)[C@H](C)NC(=O)[C@@H]1CSSC[C@H](NC(=O)[C@@H](N)CCCCNC(=O)CC[C@H](NC(=O)CC[C@H](NC(=O)CCCCCCCCCCCCCCCCCCC(=O)O)C(=O)O)C(=O)O)C(=O)N[C@@H](CC(N)=O)C(=O)N[C@@H]([C@@H](C)O)C(=O)N[C@@H](C)C(=O)N[C@@H]([C@@H](C)O)C(=O)N1)[C@@H](C)O)C(=O)N1CCC[C@H]1C(=O)N[C@@H](CO)C(=O)N[C@@H](CO)C(=O)N[C@H](C(=O)N[C@@H](CC(N)=O)C(=O)N[C@H](C(=O)NCC(=O)N[C@@H](CO)C(=O)N[C@@H](CCCNC(=N)N)C(=O)N[C@H](C(=O)N[C@@H](Cc1ccc(O)cc1)C(N)=O)[C@@H](C)O)C(C)C)[C@@H](C)O [Example 52, N-ε-1-{(S)-4-carboxy-4-[(S)-4-carboxy-4-(19-carboxynonadecanoylamino)butyrylamino]butyryl}-[Asp14,Arg17,Pro21,Pro27,Arg35]-human amylin] | 25 | 15 | 63 | 50 | reduces food intake | – | – | – | – | None of the doses trigger a notable suppression of the calcium level
4 | – | 6 | 49 | 37 | 2.36 | CC[C@H](C)[C@H](NC(=O)[C@H](C)NC(=O)CNC(=O)[C@H](Cc1ccccc1)NC(=O)[C@H](CC(N)=O)NC(=O)[C@@H]1CCCN1C(=O)[C@H](CO)NC(=O)[C@H](CO)NC(=O)[C@H](Cc1c[nH]cn1)NC(=O)[C@H](CCCNC(=N)N)NC(=O)[C@H](CC(C)C)NC(=O)[C@H](Cc1ccccc1)NC(=O)[C@H](CCC(=O)O)NC(=O)[C@H](C)NC(=O)[C@H](CC(C)C)NC(=O)[C@H](CCCNC(=N)N)NC(=O)[C@H](CCC(N)=O)NC(=O)[C@@H](NC(=O)[C@H](C)NC(=O)[C@@H]1CSSC[C@H](NC(=O)[C@@H](N)CCCCNC(=O)CC[C@H](NC(=O)CC[C@H](NC(=O)CCCCCCCCCCCCCCCCCCC(=O)O)C(=O)O)C(=O)O)C(=O)N[C@@H](CC(N)=O)C(=O)N[C@@H]([C@@H](C)O)C(=O)N[C@@H](C)C(=O)N[C@@H]([C@@H](C)O)C(=O)N1)[C@@H](C)O)C(=O)N1CCC[C@H]1C(=O)N[C@@H](CO)C(=O)N[C@@H](CO)C(=O)N[C@H](C(=O)N[C@@H](CC(N)=O)C(=O)N[C@H](C(=O)NCC(=O)N1CCC[C@H]1C(=O)N[C@@H](CCC(=O)O)C(=O)N[C@H](C(=O)N[C@@H](Cc1ccc(O)cc1)C(N)=O)[C@@H](C)O)C(C)C)[C@@H](C)O [Example 106] (H-K([γGlu-γGlu-C20 diacid])CNTATCATQRLAEFLRHSSPNFGAIPSSTNVGPETY-NH2; disulfide 2-7; N-terminus assumed) | – | – | 63 | 69 | reduce food intake | – | – | – | – | –

Source: US9023789B2, “Amylin analogs and pharmaceutical compositions thereof” (Novo Nordisk A/S, priority 2012, dated 2015)
